According to ChEMBL document CHEMBL6096671, “Discovery of VU6024578/BI02982816: An mGlu1 Positive Allosteric Modulator with Efficacy in Preclinical Antipsychotic and Cognition Models” (J Med Chem, 2024):
Active and inactive are the calls of the source. No cut-off for these calls is given here.

How the values were obtained:
[1] = Toxicity in male Sprague-Dawley rat assessed as catalepsy at 1 to 10 mg/kg, po measured after 60 mins; format: organism-based; conditions: in vivo, 1 h, dose 1-10 mg/kg
[2] = Toxicity in male Wistar rat assessed as improvement in sleep-wake profile by measuring quiet wake state at 10 mg/kg, po measured at 120 mins post treatment by EEG analysis; format: organism-based; conditions: in vivo, 2 h
Rattus norvegicus [3] = test: Antipsychotic efficacy against amphetamine-induced hyperlocomotion in male Sprague-Dawley rat assessed as reversal of hyperlocomotive state administered orally pretreated with compound followed by amphetamine addition and measured after 90 mins; format: functional, organism-based; conditions: dose 1-10 mg/kg, route po
[4] = biological target: T1, Metabotropic glutamate receptor 1 (Homo sapiens, UniProt Q13255); test: Agonist activity at mGlu1 receptor (unknown origin) upto 30 uM; format: functional
Target sequence in this assay (Q13255 19-1194 limits assumed): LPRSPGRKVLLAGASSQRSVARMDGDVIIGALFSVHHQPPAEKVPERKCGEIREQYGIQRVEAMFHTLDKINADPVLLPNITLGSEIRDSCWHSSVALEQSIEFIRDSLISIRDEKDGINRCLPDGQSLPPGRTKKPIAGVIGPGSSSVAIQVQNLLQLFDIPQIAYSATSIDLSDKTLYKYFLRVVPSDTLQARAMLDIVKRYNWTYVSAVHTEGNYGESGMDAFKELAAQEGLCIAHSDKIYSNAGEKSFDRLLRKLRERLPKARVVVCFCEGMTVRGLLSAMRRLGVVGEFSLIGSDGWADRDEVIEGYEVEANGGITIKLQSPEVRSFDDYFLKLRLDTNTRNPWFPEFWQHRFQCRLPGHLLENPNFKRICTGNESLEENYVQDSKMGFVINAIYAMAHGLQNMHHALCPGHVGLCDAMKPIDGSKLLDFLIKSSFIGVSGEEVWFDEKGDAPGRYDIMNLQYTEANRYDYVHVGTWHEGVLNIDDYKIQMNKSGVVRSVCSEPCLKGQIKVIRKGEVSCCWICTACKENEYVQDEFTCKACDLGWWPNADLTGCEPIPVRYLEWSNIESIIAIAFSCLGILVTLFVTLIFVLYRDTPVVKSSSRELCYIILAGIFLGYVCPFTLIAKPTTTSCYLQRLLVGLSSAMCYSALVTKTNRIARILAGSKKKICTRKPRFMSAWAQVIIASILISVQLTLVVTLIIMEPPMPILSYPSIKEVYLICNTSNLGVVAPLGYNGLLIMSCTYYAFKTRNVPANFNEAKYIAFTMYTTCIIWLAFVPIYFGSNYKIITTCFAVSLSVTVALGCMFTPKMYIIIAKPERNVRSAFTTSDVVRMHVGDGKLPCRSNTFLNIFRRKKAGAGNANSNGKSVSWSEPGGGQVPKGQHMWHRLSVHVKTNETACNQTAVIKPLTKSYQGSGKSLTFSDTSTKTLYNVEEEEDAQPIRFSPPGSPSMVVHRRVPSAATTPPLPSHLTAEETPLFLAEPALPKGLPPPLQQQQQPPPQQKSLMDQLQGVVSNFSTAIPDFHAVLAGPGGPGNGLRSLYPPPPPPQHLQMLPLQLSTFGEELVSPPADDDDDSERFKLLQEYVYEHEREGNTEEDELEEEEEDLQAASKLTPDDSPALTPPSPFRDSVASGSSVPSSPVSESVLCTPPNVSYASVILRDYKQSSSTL

[5] = biological target: Metabotropic glutamate receptor 3 (Homo sapiens, UniProt Q14832); test: Positive allosteric modulation of human mGlu3 receptor
Mus musculus [6] = test: Reversal of MK-801 induced deficits in male C57BL/6JRj mouse model assessed as 40 Hz ASSR in prefrontal cortex at 4 to 10 mg/kg, sc measured after 15 mins; format: functional, organism-based; conditions: dose 4-10 mg/kg
[7] = Unbound brain concentration in amphetamine-induced hyperlocomotion male Sprague-Dawley rat model at 10 mg/kg, po measured after 6.5 hrs; format: ADME, organism-based; conditions: in vivo
[8] = Toxicity in male Wistar rat assessed as change in body temperature at 10 mg/kg, po measured at 120 mins post treatment by EEG analysis; format: organism-based; conditions: in vivo, 2 h
[9] = biological target: Metabotropic glutamate receptor 5 (Homo sapiens, UniProt P41594); test: Positive allosteric modulation of human mGlu5 receptor
[10] = biological target: Metabotropic glutamate receptor 8 (Homo sapiens, UniProt O00222); test: Positive allosteric modulation of human mGlu8 receptor
[11] = Toxicity in male Wistar rat assessed as improvement in sleep-wake profile by measuring active wake state at 10 mg/kg, po measured at 120 mins post treatment by EEG analysis; format: organism-based; conditions: in vivo, 2 h
Mus musculus [12] = test: Reversal of MK-801 induced deficits in sc dosed male C57BL/6JRj mouse model assessed as 40 Hz ASSR in prefrontal cortex measured after 15 mins; format: functional, organism-based; conditions: dose 0.8-3 mg/kg
[13] = Toxicity in male Wistar rat assessed as reduction in beta power at 10 mg/kg, po measured at 60 to 240 mins post treatment by EEG analysis; format: organism-based; conditions: in vivo, time 60-240 min
[14] = Stability of compound at pH 7.4; format: physicochemical; conditions: buffer
[15] = Cmax in amphetamine-induced male Sprague-Dawley rat model at 60 mg/kg and measured at 3.33 hrs post administration; format: ADME, organism-based; conditions: in vivo
[16] = Unbound brain concentration in amphetamine-induced hyperlocomotion male Sprague-Dawley rat model at 3 mg/kg, po; format: ADME, organism-based; conditions: in vivo
[17] = Stability of compound at pH 2.2; format: physicochemical; conditions: buffer
[18] = Drug metabolism in human liver microsomes assessed as furanyl ring opening incubated for 60 mins; format: ADME, Microsome; conditions: 1 h
[19] = biological target: Metabotropic glutamate receptor 4 (Homo sapiens, UniProt Q14833); test: Positive allosteric modulation of human mGlu4 receptor
[20] = Mutagenicity in Salmonella typhimurium by Ames test; format: toxicity; conditions: salmonella enterica subsp. enterica serovar typhimurium
[21] = Unbound brain concentration in male Sprague-Dawley rat at 3 mg/kg, po in 10% tween 80 formulation measured at 15 to 420 mins by LC-MS/MS analysis; format: ADME, organism-based; conditions: in vivo, time 15-420 min
Mus musculus [22] = test: Antipsychotic efficacy against amphetamine-induced hyperlocomotion in male C57Bl/6 mouse assessed as reversal of hyperlocomotive state administered ip and pretreated with compound followed by amphetamine addition for 60 mins and measured after 90 mins; format: functional, organism-based; conditions: dose 3-30 mg/kg
[23] = Unbound brain concentration in amphetamine-induced hyperlocomotion male Sprague-Dawley rat model at 3 mg/kg, po pretreated for 2.5 hrs; format: ADME, organism-based; conditions: in vivo
[24] = biological target: T1, Metabotropic glutamate receptor 1; test: Positive allosteric modulation of mGlu1 receptor (unknown origin) in presence of glutamate at EC20 concentration; conditions: filed as positive allosteric modulator
Target sequence in this assay (Q13255 19-1194 limits assumed): as above

[25] = Drug metabolism in rat liver microsomes assessed as furanyl ring opening incubated for 60 mins; format: ADME, Microsome; conditions: 1 h
[26] = Toxicity in male Wistar rat assessed as increase in motor activity at 10 mg/kg, po measured at 120 mins post treatment by EEG analysis; format: organism-based; conditions: in vivo, 2 h
[27] = Unbound initial plasma concentration in male dog at 0.5 mg/kg, iv; format: ADME, organism-based, Canis lupus familiaris; conditions: in vivo
[28] = biological target: Metabotropic glutamate receptor 3 (Rattus norvegicus, UniProt P31422); test: Positive allosteric modulation of rat mGlu3 receptor
[29] = Unbound brain concentration in amphetamine-induced hyperlocomotion male Sprague-Dawley rat model at 3 mg/kg, po measured after 2.5 hrs; format: ADME, organism-based; conditions: in vivo
[30] = Glutathione reactivity in human liver microsomes incubated for 1 hr in presence of glutathione; format: ADME, Microsome
[31] = biological target: Metabotropic glutamate receptor 2 (Rattus norvegicus, UniProt P31421); test: Positive allosteric modulation of rat mGlu2 receptor
[32] = biological target: Metabotropic glutamate receptor 5 (Rattus norvegicus, UniProt P31424); test: Positive allosteric modulation of rat mGlu5 receptor
[33] = biological target: Metabotropic glutamate receptor 8 (Rattus norvegicus, UniProt P70579); test: Positive allosteric modulation of rat mGlu8 receptor
[34] = biological target: T1, Metabotropic glutamate receptor 1; test: Antagonist activity at mGlu1 receptor (unknown origin) assessed as desensitization of receptor at EC80 concentration; conditions: filed as antagonist
Target sequence in this assay (Q13255 19-1194 limits assumed): as above

[35] = Drug metabolism in human liver microsomes assessed as furanyl ring oxidation incubated for 60 mins; format: ADME, Microsome; conditions: 1 h
Mus musculus [36] = test: Reversal of MK-801 induced N1 sensory gating deficit in male C57BL/6JRj mouse model assessed as improvement in cognitive deficits at 10 mg/kg, sc; format: functional, organism-based
[37] = Toxicity in male Wistar rat assessed as reduction in rapid eye movement sleep at 1 to 10 mg/kg, po measured at 30 to 120 mins post treatment by EEG analysis; format: organism-based; conditions: in vivo, dose lower 1 mg/kg, time lower 30 min, dose upper 10 mg/kg, time upper 120 min
[38] = Toxicity in male Wistar rat assessed as reduction in non rapid eye movement sleep at 1 to 10 mg/kg, po measured at 30 to 120 mins post treatment by EEG analysis; format: organism-based; conditions: in vivo, dose lower 1 mg/kg, time lower 30 min, dose upper 10 mg/kg, time upper 120 min
[39] = Antagonist activity at peripheral Benzodiazepine receptor (unknown origin); parameters: species or system Homo sapiens
[40] = Drug metabolism in rat liver microsomes assessed as furanyl ring oxidation incubated for 60 mins; format: ADME, Microsome; conditions: 1 h
[41] = biological target: Metabotropic glutamate receptor 4 (Rattus norvegicus, UniProt P31423); test: Positive allosteric modulation of rat mGlu4 receptor
Rattus norvegicus [42] = test: Antipsychotic efficacy against MK-801-induced po dosed male Sprague-Dawley rat assessed as reversal of MK-801 disruption by measuring recognition index measured after 30 mins by novel object recognition test; format: functional, organism-based; conditions: dose 1-10 mg/kg
[43] = Glutathione reactivity in rat liver microsomes incubated for 1 hr in presence of glutathione; format: ADME, Microsome
[44] = Unbound brain concentration in amphetamine-induced hyperlocomotion male Sprague-Dawley rat model at 10 mg/kg, po; format: ADME, organism-based; conditions: in vivo
Rattus norvegicus [45] = test: Antipsychotic activity in male Sprague-Dawley rat assessed as reduction in amphetamine-induced locomotor activity by measuring reversal of total ambulation at 3 mg/kg, po pretreated for 1 hrs followed by amphetamine addition and measured at 95 to 180 mins relative to control; format: functional; parameters: scale not given: the % may be the effect or the level left
[46] = biological target: Metabotropic glutamate receptor 2 (Homo sapiens, UniProt Q14416); test: Positive allosteric modulation of human mGlu2 receptor
Mus musculus [47] = test: Reversal of MK-801 induced deficits in male C57BL/6JRj mouse model assessed as 40 Hz ASSR in prefrontal cortex at 0.8 mg/kg, sc measured after 15 mins; format: functional, organism-based
[48] = Toxicity in male Wistar rat assessed as reduction in alpha power at 10 mg/kg, po measured at 60 to 240 mins post treatment by EEG analysis; format: organism-based; conditions: in vivo, time 60-240 min
[49] = biological target: Metabotropic glutamate receptor 7 (Rattus norvegicus, UniProt P35400); test: Positive allosteric modulation of rat mGlu7 receptor
[50] = biological target: Metabotropic glutamate receptor 7 (Homo sapiens, UniProt Q14831); test: Positive allosteric modulation of human mGlu7 receptor
[51] = Toxicity in male Wistar rat assessed as reduction in delta power at 10 mg/kg, po measured at 60 to 240 mins post treatment by EEG analysis; format: organism-based; conditions: in vivo, time 60-240 min
Rattus norvegicus [52] = test: Antipsychotic activity in male Sprague-Dawley rat assessed as reduction in amphetamine-induced locomotor activity by measuring reversal of total ambulation at 10 mg/kg, po pretreated for 5 hrs followed by amphetamine addition and measured at 95 to 180 mins relative to control; format: functional; parameters: scale not given: the % may be the effect or the level left
[53] = biological target: T1, Metabotropic glutamate receptor 1; test: Positive allosteric modulation of human mGlu1
[54] = Unbound initial plasma concentration in male dog; format: ADME, Canis lupus familiaris
[55] = Initial plasma concentration in male dog; format: ADME, Canis lupus familiaris; conditions: read-out: C0
[56] = Toxicity in male Sprague-Dawley rat assessed as catalepsy at 1.5 mg/kg, ip measured after 100 mins; format: organism-based; conditions: in vivo, 1.667 h

Metabotropic glutamate receptor 8 (Homo sapiens, UniProt O00222), sequence (O00222 whole entry): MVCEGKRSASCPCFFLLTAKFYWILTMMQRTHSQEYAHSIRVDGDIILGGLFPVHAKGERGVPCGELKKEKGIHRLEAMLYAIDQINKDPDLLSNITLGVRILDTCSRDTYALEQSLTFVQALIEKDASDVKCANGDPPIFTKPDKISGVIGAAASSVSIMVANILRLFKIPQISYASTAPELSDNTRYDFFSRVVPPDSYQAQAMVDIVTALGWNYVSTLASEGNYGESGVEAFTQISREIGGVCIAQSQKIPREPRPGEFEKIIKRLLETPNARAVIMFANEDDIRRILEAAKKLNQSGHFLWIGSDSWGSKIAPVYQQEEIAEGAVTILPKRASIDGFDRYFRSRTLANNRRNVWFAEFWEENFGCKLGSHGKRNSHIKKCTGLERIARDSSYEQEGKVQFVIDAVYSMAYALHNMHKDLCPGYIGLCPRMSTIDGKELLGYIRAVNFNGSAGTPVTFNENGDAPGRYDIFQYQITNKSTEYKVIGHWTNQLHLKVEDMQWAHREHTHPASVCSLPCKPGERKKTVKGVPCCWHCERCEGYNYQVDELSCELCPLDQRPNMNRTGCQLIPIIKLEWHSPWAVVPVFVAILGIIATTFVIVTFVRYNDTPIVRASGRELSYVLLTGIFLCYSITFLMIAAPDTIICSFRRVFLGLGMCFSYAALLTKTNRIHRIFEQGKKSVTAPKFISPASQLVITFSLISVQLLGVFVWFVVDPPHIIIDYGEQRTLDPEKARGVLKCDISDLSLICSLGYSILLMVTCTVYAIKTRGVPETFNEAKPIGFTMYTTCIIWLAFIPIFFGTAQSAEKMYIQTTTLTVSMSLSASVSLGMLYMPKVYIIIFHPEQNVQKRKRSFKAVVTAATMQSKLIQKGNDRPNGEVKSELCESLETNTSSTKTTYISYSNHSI
Metabotropic glutamate receptor 3 (Homo sapiens, UniProt Q14832), sequence (Q14832 whole entry): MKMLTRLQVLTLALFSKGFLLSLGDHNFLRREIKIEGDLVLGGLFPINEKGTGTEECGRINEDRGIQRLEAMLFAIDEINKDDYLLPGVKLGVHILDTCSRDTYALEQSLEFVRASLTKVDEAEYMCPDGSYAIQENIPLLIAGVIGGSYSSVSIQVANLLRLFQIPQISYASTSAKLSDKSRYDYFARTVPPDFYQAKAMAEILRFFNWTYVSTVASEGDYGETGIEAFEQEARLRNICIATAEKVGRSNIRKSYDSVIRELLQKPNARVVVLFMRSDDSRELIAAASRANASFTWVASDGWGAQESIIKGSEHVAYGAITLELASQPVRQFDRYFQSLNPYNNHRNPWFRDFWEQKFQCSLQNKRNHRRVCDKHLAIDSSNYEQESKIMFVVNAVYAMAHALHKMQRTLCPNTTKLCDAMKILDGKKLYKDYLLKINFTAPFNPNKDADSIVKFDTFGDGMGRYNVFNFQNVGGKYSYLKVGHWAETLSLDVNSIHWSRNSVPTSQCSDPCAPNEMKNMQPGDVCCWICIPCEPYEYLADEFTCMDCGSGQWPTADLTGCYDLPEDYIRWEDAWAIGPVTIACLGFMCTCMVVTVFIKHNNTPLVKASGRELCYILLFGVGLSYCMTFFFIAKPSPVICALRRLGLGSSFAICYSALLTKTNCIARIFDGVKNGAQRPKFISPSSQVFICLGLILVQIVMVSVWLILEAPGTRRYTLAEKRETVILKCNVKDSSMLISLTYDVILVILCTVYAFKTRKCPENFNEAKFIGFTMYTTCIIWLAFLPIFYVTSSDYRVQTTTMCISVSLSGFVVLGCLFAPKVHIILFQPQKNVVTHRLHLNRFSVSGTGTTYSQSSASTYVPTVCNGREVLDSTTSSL
Metabotropic glutamate receptor 5 (Rattus norvegicus, UniProt P31424), sequence (P31424 whole entry): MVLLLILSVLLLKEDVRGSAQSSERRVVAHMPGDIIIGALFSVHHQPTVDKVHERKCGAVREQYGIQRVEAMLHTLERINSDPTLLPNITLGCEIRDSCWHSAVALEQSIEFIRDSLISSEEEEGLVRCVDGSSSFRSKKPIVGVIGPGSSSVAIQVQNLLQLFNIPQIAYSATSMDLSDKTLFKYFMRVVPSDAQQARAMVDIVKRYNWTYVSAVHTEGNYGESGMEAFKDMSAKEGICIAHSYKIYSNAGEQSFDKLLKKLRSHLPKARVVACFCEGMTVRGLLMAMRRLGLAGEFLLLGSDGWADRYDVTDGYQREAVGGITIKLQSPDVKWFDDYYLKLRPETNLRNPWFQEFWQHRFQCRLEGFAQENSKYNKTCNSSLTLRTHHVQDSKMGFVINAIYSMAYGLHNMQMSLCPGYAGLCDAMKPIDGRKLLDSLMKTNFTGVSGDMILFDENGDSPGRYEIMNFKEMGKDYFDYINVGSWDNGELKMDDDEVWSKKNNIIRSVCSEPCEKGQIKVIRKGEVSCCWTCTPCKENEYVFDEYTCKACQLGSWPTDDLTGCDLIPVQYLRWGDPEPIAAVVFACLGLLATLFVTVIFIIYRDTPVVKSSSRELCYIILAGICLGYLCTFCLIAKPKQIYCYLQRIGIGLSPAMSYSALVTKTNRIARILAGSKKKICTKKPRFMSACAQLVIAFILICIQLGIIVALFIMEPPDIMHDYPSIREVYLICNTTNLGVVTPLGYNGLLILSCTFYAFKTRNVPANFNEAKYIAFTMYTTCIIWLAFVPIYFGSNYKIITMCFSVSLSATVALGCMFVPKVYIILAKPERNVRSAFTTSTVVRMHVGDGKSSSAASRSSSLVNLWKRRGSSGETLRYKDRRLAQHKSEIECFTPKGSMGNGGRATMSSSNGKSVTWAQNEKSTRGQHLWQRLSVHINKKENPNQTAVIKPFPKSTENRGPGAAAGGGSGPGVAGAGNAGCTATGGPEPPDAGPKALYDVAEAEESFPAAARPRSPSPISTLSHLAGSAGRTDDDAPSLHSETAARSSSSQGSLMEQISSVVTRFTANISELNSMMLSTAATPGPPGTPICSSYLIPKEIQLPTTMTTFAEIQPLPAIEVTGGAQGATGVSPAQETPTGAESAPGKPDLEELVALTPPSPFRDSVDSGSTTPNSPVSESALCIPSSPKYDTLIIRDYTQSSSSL
Metabotropic glutamate receptor 2 (Homo sapiens, UniProt Q14416), sequence (Q14416 whole entry): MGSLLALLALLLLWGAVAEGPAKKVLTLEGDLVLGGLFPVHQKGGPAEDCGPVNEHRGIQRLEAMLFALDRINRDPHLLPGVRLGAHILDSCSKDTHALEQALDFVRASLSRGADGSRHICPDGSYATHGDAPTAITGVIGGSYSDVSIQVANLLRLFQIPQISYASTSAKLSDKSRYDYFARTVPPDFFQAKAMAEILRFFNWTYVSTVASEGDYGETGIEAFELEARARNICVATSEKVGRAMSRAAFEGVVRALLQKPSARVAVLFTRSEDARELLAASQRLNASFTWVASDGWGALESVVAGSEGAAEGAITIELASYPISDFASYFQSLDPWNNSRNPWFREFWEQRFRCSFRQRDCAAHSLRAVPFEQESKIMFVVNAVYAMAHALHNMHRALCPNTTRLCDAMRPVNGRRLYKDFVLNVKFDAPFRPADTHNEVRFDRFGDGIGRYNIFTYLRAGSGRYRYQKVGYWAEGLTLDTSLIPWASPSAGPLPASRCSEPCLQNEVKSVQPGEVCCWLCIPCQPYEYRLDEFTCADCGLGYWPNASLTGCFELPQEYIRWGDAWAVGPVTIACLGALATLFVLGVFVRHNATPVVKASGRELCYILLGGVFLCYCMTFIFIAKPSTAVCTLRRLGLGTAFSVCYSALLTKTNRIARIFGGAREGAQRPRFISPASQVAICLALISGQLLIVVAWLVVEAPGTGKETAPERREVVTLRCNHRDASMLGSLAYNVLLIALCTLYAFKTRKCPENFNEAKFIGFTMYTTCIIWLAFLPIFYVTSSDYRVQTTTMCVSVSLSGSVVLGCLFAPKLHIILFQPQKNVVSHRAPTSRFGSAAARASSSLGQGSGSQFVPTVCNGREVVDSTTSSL

Cn1nc(-c2ccnn2C)cc1CNC(=O)c1cc(-c2ccco2)ccc1Cl
Activity [1]: Non-toxic | Activity [2]: Non-toxic | Activity (Rattus norvegicus [3]): Dose-dependent-effect | Activity [4]: inactive | EC50 [5]: > 30 µM | Activity (Mus musculus [6]): Active | Drug uptake(free) [7]: 44 nM | Activity [8]: Non-toxic | EC50 [9]: > 30 µM | EC50 [10]: > 30 µM | Activity [11]: Non-toxic | Activity (Mus musculus [12]): Active | Activity [13]: Non-toxic | Stability [14]: Stable | Cmax [15]: 313 nM | Drug uptake(free) [16]: 40 nM | Stability [17]: Stable | Drug metabolism [18]: metabolite_notdetected | EC50 [19]: > 30 µM | Activity [20]: Non-toxic | Drug uptake(free) [21]: 100 nM | Activity (Mus musculus [22]): Dose-dependent-effect | Drug uptake(free) [23]: 32 nM | Activity [24]: Active | Drug metabolism [25]: metabolite_notdetected | Activity [26]: Non-toxic | C0(unbound) [27]: 80 nM | EC50 [28]: > 30 µM | Drug uptake(free) [29]: 40 nM | Drug metabolism [30]: metabolite_detected | EC50 [31]: > 30 µM | EC50 [32]: > 30 µM | EC50 [33]: > 30 µM | Activity [34]: Active; Slight Desensitization Was Observed | Drug metabolism [35]: metabolite_notdetected | Activity (Mus musculus [36]): Active | Activity [37]: Non-toxic | Activity [38]: Non-toxic | IC50 [39]: 0.207 µM | Drug metabolism [40]: metabolite_notdetected | EC50 [41]: > 30 µM | Activity (Rattus norvegicus [42]): Dose-dependent-effect | Drug metabolism [43]: metabolite_detected | Drug uptake(free) [44]: 44 nM | Activity (Rattus norvegicus [45]): 27.3% | EC50 [46]: > 30 µM | Activity (Mus musculus [47]): inactive | Activity [48]: Non-toxic | EC50 [49]: > 30 µM | EC50 [50]: > 30 µM | Activity [51]: Non-toxic | Activity (Rattus norvegicus [52]): 25.1%

Cc1ccc2c(c1)C(=O)N(c1ccc(NC(=O)c3occc3C)c(F)c1)C2=O
EC50 [53]: 0.013 µM | C0(unbound) [54]: 36.4 nM | concentration [55]: 1100 nM

O=C(CCCN1CCC(O)(c2ccc(Cl)cc2)CC1)c1ccc(F)cc1 [HALOPERIDOL]
Activity [56]: Toxic
